Experimental data as given in US6187802A, “Substituted 4-arylmethylene-2-imino-2,3-dihydrothiazoles and derivatives and their pharmaceutical use” (Knoll Aktiengesellschaft, priority 1997, dated 2001).
Structures can show the parent of a compound that is named as a salt.

What was measured:
[1] = target: T1, 5-hydroxytryptamine (5-HT) reuptake sites (Rattus norvegicus, UniProt P31652); test: displacement of [3H]paroxetine from 5-HT reuptake sites, frontal cortical membranes; format: binding; details: 10^-6 M test compound, [3H]paroxetine 30 pM, one test only, read-out: 5-HT uptake (% displacement of specific binding of tritiated ligand)
T1 construct: Frontal cortical tissue from the brains of male Sprague-Dawley rats; from tissue; host or cells: rat brain frontal cortex (crude synaptosomes in A2, washed membranes in A5)
T1 sequence (P31652 whole entry): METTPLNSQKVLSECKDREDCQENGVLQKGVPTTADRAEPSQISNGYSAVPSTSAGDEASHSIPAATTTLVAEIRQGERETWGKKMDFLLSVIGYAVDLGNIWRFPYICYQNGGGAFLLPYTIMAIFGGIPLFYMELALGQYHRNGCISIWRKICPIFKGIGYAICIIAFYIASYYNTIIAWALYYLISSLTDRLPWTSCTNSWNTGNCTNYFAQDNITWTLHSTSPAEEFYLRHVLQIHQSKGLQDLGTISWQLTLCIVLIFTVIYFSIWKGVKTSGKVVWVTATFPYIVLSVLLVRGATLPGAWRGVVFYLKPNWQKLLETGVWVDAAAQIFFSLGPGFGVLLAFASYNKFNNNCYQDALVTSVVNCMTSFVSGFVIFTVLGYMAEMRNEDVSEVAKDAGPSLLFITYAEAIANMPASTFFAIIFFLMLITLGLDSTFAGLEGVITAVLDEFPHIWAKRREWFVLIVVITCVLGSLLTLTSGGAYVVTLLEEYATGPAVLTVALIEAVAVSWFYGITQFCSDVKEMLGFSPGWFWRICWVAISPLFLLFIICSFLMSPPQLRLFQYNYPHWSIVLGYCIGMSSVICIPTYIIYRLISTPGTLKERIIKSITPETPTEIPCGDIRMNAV
Description: Frontal cortical tissue from the brains of male Charles River rats weighing 150-250 g was homogenised in ice-cold 0.25M sucrose (1:30 w/v) using a Kinematic polytron (speed setting 6 for 30 seconds) and centrifuged at 1000 g for 12 minutes. The supernatant was stored on ice and the pellet was resuspended in 0.25M sucrose (1:20 w/v) and centrifuged at 850 g for 10 minutes. Combined supernatants were diluted to 1:100 w/v with ice-cold 50 mM Tris-HCl, pH 7.5 (at 25° C.) containing 120 mM sodium chloride and 5 mM potassium chloride (Tris buffer) and centrifuged at 40,000 g for 10 minutes. The resulting pellet was resuspended in 50 mM Tris buffer (1:100 w/v) and recentrifuged at 40,000 g for 10 minutes. The final pellet was resuspended in 50 mM Tris buffer (equivalent to 2 mg wet weight of tissue/ml) and used immediately in the binding assay. All centrifugations were carried out at 4° C.
Membranes (1000 μl; equivalent to 2 mg wet weight of tissue/tube) were incubated with 200 μl [^3 H]paroxetine at a single concentration of 30 pM and 200 μl of distilled water (total binding) or 200 μl of test compound (10^-6 M) or 200 μl of citalopram (1 μM; non-specific binding) for 2 h at 22° C.
Membrane bound radioactivity was recovered by filtration under vacuum through Whatman GFIC filters using a Brandel cell harvester. Filters were rapidly washed with 16 ml ice-cold 50 mM Tris buffer and radioactivity determined by liquid scintillation counting (2 ml Packard MV Gold scintillator).
(§1) For each of these tests measuring the ability of compounds of Formula I to displace standard ligands from dopamine (DA), 5-hydroxytryptamine (5-HT) and noradrenaline (NA) reuptake sites in vitro, the percentage displacement of specific binding of tritiated ligand by 10^-6 M test compound was calculated in the following way:
(§2) Firstly, specific binding of tritiated ligand in the absence (A) and presence (B) of test compound was determined:
(§3) In the absence of compound:
(§4) A (dpm)=Total binding (dpm)-Non-specific binding (dpm)
(§5) In the presence of compound (10^-6 M):
(§6) B (dpm)=Binding at 10^-6 M (dpm)-Non-specific binding (dpm)
(§7) The specific binding of tritiated ligand in the presence (B) of compound was then converted to a percentage of specific binding of tritiated ligand in the absence (A) of compound:
(§8) % Specific binding at 10^-6 M=B (dpm)/A(dpm)×100
(§9) The percentage displacement of specific binding of trtiated ligand by the test compound (10^-6 M) was then obtained by subtraction of the percentage specific binding in the presence of compound from the percentage specific binding in the absence of compound, which is taken as the maximum binding and so equals 100%:
(§10) % Displacement at 10^-6 M=100-% Specific binding at 10^-6 M.
(§11) The values given below in Table 2 for examples 6 to 76 are % displacement of specific binding of tritiated ligand by 10^-6 M test compound and represent results from one test only. IA refers to <50% displacement.

[2] = target: T2, noradrenaline (NA) reuptake sites (Rattus norvegicus, UniProt Q63380); test: displacement of [3H]nisoxetine from noradrenaline reuptake sites, frontal cortical membranes; details: 10^-6 M test compound, [3H]nisoxetine 0.6 nM, one test only, read-out: NA uptake (% displacement of specific binding of tritiated ligand)
T2 construct: Frontal cortical tissue from the brains of male Sprague-Dawley rats; from tissue; host or cells: rat brain frontal cortex (crude synaptosomes in A3, washed membranes in A6)
T2 sequence (Q63380 1-617): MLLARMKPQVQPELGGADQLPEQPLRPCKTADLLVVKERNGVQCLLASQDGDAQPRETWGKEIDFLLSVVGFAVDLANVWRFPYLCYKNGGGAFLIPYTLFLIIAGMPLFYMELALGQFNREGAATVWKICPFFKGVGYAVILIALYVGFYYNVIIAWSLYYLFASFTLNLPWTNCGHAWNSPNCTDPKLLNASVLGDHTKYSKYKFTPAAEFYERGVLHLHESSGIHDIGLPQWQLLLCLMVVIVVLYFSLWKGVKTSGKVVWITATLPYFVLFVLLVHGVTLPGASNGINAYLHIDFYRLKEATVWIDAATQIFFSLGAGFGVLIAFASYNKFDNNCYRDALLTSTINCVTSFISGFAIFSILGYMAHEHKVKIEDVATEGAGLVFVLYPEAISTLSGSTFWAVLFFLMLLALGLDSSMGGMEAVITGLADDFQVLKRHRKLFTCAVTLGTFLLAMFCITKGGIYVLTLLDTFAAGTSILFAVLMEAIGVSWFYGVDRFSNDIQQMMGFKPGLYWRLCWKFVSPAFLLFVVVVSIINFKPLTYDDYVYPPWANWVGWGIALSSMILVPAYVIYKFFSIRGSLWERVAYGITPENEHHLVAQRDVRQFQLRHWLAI
Description: Frontal cortical tissue from the brains of male Charles River rats weighing 150-250 g was homogenised in ice-cold 50 mM Tris-HCl, pH 7.4 (at 25° C.) containing 120 mM sodium chloride and 5 mM potassium chloride (Tris buffer; 1:60 w/v) using a Kinematic polytron (speed setting 6 for 30 seconds) and centrifuged at 40,000 g for 10 minutes. The supernatant was discarded and the pellet rehomogenised in Tris buffer, 1:60 w/v, and centrifuged at 40,000 g for 10 minutes. This step was repeated twice more so that, in total, the brain tissue was homogenised and centrifuged four times. The final pellet was resuspended in 50 mM Tris-HCl, pH 7.4 containing 300 mM sodium chloride and 5 mM potassium chloride (equivalent to 25 mg wet weight of tissue/ml) and used immediately in the binding assay. All centrifugations were performed at 4° C.
Membranes (400 μl; equivalent to 10 mg wet weight of tissue/tube) were incubated with 50 μl [^3 H]nisoxetine at a single concentration of 0.6 nM and 50 μl of distilled water (total binding) or 50 μl of test compound (10^-6 M) or 50 μl of mazindol (1 μM; non-specific binding) for 4 h at 4° C.
Membrane bound radioactivity was recovered by filtration under vacuum through Skatron 11734 filters using a Skatron cell harvester. Filters were rapidly washed with ice-cold 50 mM Tris-HCl, pH 7.4 containing 120 mM sodium chloride and 5 mM potassium chloride (wash setting 9,9,0) and radioactivity determined by liquid scintillation counting (1 ml Packard MV Gold scintillator).
as §1, §2, §3, §4, §5, §6, §7, §8, §9, §10, §11

[3] = target: T3, dopamine (DA) reuptake sites (Rattus norvegicus, UniProt P23977); test: displacement of [3H]GBR 12935 from dopamine reuptake sites, striatal membranes; format: binding; details: 10^-6 M test compound, [3H]GBR 12935 1 nM, one test only, read-out: DA uptake (% displacement of specific binding of tritiated ligand)
T3 construct: Striatal tissue from the brains of male Charles River rats weighing 150-250 g; from tissue; host or cells: rat brain striatum (crude synaptosomes in A1, washed membranes in A4)
T3 sequence (P23977 whole entry): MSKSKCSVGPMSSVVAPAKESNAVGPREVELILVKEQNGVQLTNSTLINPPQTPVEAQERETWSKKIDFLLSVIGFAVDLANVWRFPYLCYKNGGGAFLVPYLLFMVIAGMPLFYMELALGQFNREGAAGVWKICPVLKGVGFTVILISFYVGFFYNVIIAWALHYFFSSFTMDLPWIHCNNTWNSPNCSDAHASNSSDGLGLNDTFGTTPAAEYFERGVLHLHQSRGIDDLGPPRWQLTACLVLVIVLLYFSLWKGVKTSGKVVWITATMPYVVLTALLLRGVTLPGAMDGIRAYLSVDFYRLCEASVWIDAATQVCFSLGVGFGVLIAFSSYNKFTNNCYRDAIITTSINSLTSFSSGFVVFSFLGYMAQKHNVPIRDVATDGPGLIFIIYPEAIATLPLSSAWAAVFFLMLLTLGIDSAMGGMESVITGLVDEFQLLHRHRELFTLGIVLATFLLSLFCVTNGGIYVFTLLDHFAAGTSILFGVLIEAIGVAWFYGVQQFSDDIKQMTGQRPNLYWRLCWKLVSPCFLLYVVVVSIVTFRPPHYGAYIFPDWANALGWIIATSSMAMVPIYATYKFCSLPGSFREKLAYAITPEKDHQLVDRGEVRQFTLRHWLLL
Description: Striatal tissue from the brains of male Charles River rats weighing 150-250 g was homogenised in ice-cold 0.32M sucrose (1:80 w/v) using a motor driven teflon pestle (12 strokes, 800 rpm) and centrifuged at 1000 g for 12 minutes. The supernatant was stored on ice and the pellet was resuspended in 0.32M sucrose (1:80 w/v) and centrifuged at 850 g for 10 minutes. Combined supernatants were diluted to 1:320 w/v with ice-cold 50 mM Tris-HCl, pH 7.4 (at 25° C.) containing 200 mM sodium chloride and 5 mM potassium chloride (Tris buffer) and centrifuged at 40,000 g for 10 minutes. The resulting pellet was resuspended in 10 ml of 50 mM Tris buffer, incubated at 37° C. for 10 min, diluted in 50 mM Tris buffer (1:320 w/v) and recentrifuged at 40,000 g for 10 minutes. The final pellet was resuspended in 50 mM Tris buffer (equivalent to 1.25 mg wet weight of tissue/ml) and used immediately in the binding assay. All centrifugations were carried out at 4° C.
Membranes (800 μl; equivalent to 1 mg wet weight of tissue/tube) were incubated with 100 μl [^3 H]GBR 12935 at a single concentration of 1 nM and 100 μl of distilled water (total binding) or 100 μl of test compound (10^-6 M) or 100 μl of mazindol (1 μM; non-specific binding) for 90 min at 4° C.
Membrane bound radioactivity was recovered by filtration under vacuum through Whatman GF/C filters, pre-soaked for 1 h in 0.5% polyethylenimine,using a Brandel cell harvester. Filters were rapidly washed with 16 ml of ice-cold 50 mM Tris-HCl, pH 7.4 and radioactivity determined by liquid scintillation counting (2 ml Packard MV Gold scintillator).
as §1, §2, §3, §4, §5, §6, §7, §8, §9, §10, §11

| SMILES | inhibition at 1 µM [1] [%] | inhibition at 1 µM [2] [%] | inhibition at 1 µM [3] [%] |
| --- | --- | --- | --- |
| Clc1ccc(C2(c3csc(=NCc4ccccc4)n3Cc3ccccc3)CCC2)cc1Cl [Example 22, 3-Benzyl-2-benzylimino-4-[1-(3,4-dichlorophenyl)cyclobutyl]-2,3-dihydrothiazole hydrobromide] | < 50 | < 50 | 79 |
| Fc1ccc(CN=c2scc(C3(c4ccc(Cl)c(Cl)c4)CCC3)n2Cc2ccc(F)cc2)cc1 [Example 23, 4-[1-(3,4-Dichlorophenyl)cyclobutyl]-3-(4-fluorobenzyl)-2-(4-fluorobenzylimino)-2,3-dihydrothiazole hydrobromide] | < 50 | < 50 | 83 |
| Clc1ccc(C2(c3csc(=NCCc4ccccc4)n3CCc3ccccc3)CCC2)cc1Cl [Example 24, 4-[1-(3,4-Dichlorophenyl)cyclobutyl]-3-phenethyl-2-phenethylimino-2,3-dihydrothiazole hydrobromide] | < 50 | < 50 | 90 |
| Clc1ccc(C2(c3csc(=NCc4cccnc4)n3Cc3cccnc3)CCC2)cc1Cl [Example 25, 4-[1-(3,4-Dichlorophenyl)cyclobutyl]-3-(3-pyridylmethyl)-2-(3-pyridylmethylimino)-2,3-dihydrothiazole hydrobromide] | 95 | 66 | 108 |
| Clc1ccc(C2(c3csc(=NCc4ccco4)n3Cc3ccco3)CCC2)cc1Cl [Example 26, 4-[1-(3,4-Dichlorophenyl)cyclobutyl]-3-furfuryl-2-furfurylimino-2,3-dihydrothiazole hydrobromide] | 92 | < 50 | 116 |
| Clc1ccc(C2(c3csc(=Nc4ccccc4)n3-c3ccccc3)CCC2)cc1Cl [Example 27, 4-[1-(3,4-Dichlorophenyl)cyclobutyl]-3-phenyl-2-phenylimino-2,3-dihydrothiazole hydrobromide] | < 50 | < 50 | 84 |
| Cc1ccc(N=c2scc(C3(c4ccc(Cl)c(Cl)c4)CCC3)n2-c2ccc(C)cc2)cc1 [Example 28, 4-[1-(3,4-Dichlorophenyl)cyclobutyl]-3-(p-tolyl)-2-(ptolylimino)-2,3-dihydrothiazole hydrobromide] | < 50 | < 50 | 71 |
| Cc1ccccc1N=c1scc(C2(c3ccc(Cl)c(Cl)c3)CCC2)n1-c1ccccc1C [Example 29, 4-[1-(3,4-Dichlorophenyl)cyclobutyl]-3-(o-tolyl)-2-(o-tolylimino)-2,3-dihydrothiazole hydrobromide] | < 50 | < 50 | 74 |
| FC(F)(F)c1cccc(N=c2scc(C3(c4ccc(Cl)c(Cl)c4)CCC3)n2-c2cccc(C(F)(F)F)c2)c1 [Example 30, 4-[1-(3,4-Dichlorophenyl)cyclobutyl]-3-(3-trifluoromethylphenyl)-2-(3-trifluoromethylphenylimino)-2,3-dihydrothiazole hydrobromide] | < 50 | < 50 | 79 |
| Cc1ccc(N=c2scc(C3(c4ccc(Cl)c(Cl)c4)CCC3)n2-c2ccc(C)cc2C)c(C)c1 [Example 31, 4-[1-(3,4-Dichlorophenyl)cyclobutyl]-3-(2,4-xylyl)-2-(2,4-xylylimino)-2,3-dihydrothiazole hydrobromide] | < 50 | < 50 | 63 |
| CCOc1ccc(N=c2scc(C3(c4ccc(Cl)c(Cl)c4)CCC3)n2-c2ccc(OCC)cc2)cc1 [Example 32, 4-[1-(3,4-Dichlorophenyl)cyclobutyl]-3-(4-ethoxyphenyl)-2-(4-ethoxyphenylimino)-2,3-dihydrothiazole hydrobromide] | < 50 | < 50 | 69 |
| COc1ccc(CCN=c2scc(C3(c4ccc(Cl)c(Cl)c4)CCC3)n2CCc2ccc(OC)c(OC)c2)cc1OC [Example 33, 4-[1-(3,4-Dichlorophenyi)cyclobutyl]-3-(3,4-dimethoxyphenethyl)-2-(3,4-dimethoxyphenethylimino)-2,3-dihydnothiazole hydrobromide] | 63 | < 50 | 99 |
| C1=C(C2(c3ccc4ccccc4c3)CCC2)N2CCCN=C2S1 [Example 34, 3-[1-(2-Naphthyl)cyclobutyl]-6,7-dihydro-5H-thiazolo[3,2-a]pyrimidine hydrobromide] | 100 | 110 | 109 |
| CN=c1scc(C2(c3ccc4ccccc4c3)CCC2)n1C [Example 36, 3-Methyl-2-methylimino-4-[1-(2-naphthyl)cyclobutyl]-2,3-dihydrothiazole hydrobromide] | 101 | 101 | 108 |
| CCN=c1scc(C2(c3ccc4ccccc4c3)CCC2)n1CC [Example 37, 3-Ethyl-2-ethylimino-4-[1-(2-naphthyl)cyclobutyl]-2,3-dihydrothiazole hydrobromide] | 101 | 102 | 110 |
